Experimental data taken from ChEMBL document CHEMBL1201862, “PubChem BioAssay data set” (2004).
Calls of active or inactive are those of the source.

Columns and labels:
Assay type in all cases: functional
[1] = target: T1, Replicative DNA helicase DnaB (Mycobacterium tuberculosis, UniProt P9WMR3); test: DnaB intein splicing inhibitors, dose response, biochemical, cell-free fluorescence (AID 449749)
T1 sequence (P9WMR3 whole entry): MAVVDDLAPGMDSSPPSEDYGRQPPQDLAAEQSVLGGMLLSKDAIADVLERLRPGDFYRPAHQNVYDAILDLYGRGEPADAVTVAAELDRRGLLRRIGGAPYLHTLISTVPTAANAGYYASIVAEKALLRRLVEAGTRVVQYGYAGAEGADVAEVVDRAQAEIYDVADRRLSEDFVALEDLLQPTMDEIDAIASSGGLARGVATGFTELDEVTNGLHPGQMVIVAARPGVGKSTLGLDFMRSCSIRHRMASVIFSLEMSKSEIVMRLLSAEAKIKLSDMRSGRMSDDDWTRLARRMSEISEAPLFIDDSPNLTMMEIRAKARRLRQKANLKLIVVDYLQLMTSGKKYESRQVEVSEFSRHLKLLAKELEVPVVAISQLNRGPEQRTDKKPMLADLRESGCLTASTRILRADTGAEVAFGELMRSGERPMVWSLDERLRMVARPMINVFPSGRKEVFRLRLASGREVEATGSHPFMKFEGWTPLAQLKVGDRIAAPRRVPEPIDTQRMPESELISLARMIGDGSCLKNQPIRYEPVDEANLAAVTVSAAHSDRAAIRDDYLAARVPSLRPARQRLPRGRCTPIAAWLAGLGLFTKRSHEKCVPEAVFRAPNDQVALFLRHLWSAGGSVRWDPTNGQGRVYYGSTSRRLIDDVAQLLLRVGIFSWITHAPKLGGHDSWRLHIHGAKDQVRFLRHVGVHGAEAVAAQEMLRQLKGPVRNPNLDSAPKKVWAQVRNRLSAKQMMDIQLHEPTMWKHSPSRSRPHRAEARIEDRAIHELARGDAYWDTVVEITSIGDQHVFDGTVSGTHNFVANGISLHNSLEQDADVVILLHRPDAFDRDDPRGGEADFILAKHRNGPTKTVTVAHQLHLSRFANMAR

INS1 = test: INS-1E survival protection against cytokine death – cell-based, luminescence, retest, dose response (AID 449756); conditions: Rattus norvegicus;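 further: cell death triggered by IL-1 beta plus TNF-alpha plus IFN-gamma mixture; protective hits raise ATP signal compared with cytokine alone wells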
[2] = target: T2, Sentrin-specific protease 7 (Homo sapiens, UniProt Q9BQF6);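 further: Luminescence-based dose-response confirmation of ultra-high-throughput screening hits, measuring inhibition of SENP7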
T2 sequence (Q9BQF6 whole entry): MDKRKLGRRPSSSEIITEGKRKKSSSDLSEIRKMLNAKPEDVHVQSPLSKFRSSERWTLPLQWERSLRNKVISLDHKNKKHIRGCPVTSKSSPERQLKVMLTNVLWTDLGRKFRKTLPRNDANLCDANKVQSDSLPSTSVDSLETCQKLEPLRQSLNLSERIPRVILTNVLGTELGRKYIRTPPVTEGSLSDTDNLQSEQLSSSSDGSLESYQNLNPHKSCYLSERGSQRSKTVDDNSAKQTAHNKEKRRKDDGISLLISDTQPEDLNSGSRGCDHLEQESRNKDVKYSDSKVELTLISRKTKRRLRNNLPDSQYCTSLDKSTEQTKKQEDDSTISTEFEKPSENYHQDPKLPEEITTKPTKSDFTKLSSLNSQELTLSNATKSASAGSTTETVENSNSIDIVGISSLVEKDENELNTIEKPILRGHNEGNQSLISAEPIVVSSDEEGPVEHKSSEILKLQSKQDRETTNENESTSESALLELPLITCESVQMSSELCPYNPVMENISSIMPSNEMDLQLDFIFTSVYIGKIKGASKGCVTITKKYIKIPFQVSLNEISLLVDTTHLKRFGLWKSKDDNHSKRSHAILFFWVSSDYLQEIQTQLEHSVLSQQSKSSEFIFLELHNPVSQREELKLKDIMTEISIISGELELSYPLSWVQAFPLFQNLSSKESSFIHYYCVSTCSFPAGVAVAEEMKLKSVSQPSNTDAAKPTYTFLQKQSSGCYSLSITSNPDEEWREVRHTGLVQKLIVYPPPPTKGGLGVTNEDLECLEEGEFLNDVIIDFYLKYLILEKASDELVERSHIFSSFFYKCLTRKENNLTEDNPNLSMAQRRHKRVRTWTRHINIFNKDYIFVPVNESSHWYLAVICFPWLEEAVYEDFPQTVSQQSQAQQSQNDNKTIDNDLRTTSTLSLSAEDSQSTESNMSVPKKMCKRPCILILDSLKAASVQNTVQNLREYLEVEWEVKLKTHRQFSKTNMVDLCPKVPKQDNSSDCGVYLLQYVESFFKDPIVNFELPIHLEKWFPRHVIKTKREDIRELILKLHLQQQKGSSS

[3] = target: T3, Sentrin-specific protease 6 (Homo sapiens, UniProt Q9GZR1);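 further: Luminescence-based dose-response confirmatory assay of SENP6 inhibition, following up an ultra-high-throughput screen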
T3 sequence (Q9GZR1 whole entry): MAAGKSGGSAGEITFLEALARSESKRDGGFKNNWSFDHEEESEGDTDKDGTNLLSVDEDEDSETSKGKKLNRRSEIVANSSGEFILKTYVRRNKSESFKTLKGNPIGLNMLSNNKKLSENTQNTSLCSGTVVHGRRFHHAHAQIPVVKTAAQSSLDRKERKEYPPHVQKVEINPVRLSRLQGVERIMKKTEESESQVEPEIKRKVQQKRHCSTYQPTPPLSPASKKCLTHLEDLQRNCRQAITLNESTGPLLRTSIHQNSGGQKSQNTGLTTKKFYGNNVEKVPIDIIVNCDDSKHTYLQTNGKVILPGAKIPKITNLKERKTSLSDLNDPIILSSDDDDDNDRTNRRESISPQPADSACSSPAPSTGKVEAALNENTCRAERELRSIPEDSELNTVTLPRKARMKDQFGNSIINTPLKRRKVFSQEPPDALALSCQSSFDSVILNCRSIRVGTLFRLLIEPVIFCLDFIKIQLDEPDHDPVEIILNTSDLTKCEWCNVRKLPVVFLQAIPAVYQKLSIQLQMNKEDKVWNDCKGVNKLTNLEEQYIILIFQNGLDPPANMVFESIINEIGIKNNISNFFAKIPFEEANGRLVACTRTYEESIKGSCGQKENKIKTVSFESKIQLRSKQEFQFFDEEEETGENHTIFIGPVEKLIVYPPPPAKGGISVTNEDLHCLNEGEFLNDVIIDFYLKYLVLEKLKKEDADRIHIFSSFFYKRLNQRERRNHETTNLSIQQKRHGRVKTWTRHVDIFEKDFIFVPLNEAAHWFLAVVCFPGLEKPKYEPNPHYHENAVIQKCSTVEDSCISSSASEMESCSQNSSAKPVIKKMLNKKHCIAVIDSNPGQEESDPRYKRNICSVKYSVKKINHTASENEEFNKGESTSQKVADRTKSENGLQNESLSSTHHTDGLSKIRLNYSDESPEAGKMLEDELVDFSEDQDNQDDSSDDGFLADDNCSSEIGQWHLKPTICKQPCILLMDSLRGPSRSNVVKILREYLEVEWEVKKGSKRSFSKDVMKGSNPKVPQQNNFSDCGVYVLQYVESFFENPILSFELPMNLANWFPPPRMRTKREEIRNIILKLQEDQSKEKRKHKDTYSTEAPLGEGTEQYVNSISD

| Structure (SMILES) | AC50 [1] | AC50 (INS1) | IC50 [2] | IC50 [3] |
| --- | --- | --- | --- | --- |
| O=C1C(Cl)=C(NCc2cccnc2)C(=O)c2ccccc21 | 4.75 µM (active) | 7.26 µM (active) | – | – |
| Cc1cnc(NC(=O)c2sc3ccccc3c2Cl)s1 | – | – | 2.6 µM (active) | > 100 µM (inactive) |
| Cc1ccc(Nc2cc(C)nn2-c2nc(C)cc(O)n2)cc1 | 13.6 µM (active) | 0.6 µM (active) | – | – |
| Cc1ccc(C(=O)c2c(C)oc3c2C(=O)C(=O)c2ccccc2-3)cc1 | – | 2.4 µM (active) | 6.7 µM (active) | 4.76 µM (active) |
| CN(C)c1ncc(C2=C(Cl)C(=O)C(N3CCCC3)=C(Cl)C2=O)s1 | > 380 µM (inactive) | – | – | – |
| O=C1C(O)=C/C(=N\c2ccccc2O)c2ccccc21 | 27.4 µM (active) | 3.26 µM (active) | 5.84 µM (active) | 2.95 µM (active) |
| Nc1ccc(Br)c2cccnc12 | – | – | 9.77 µM (active) | 7.46 µM (active) |
